According to US11946094B2, “Combination therapies and methods of use thereof” (Augusta University Research Institute, Inc., priority 2017, dated 2024):
Structures can show the parent of a compound that is named as a salt.

test system: OVCAR-8 cells; assay: Drug-siRNA combination screen: 346-compound anticancer library at 100 nM, CCK-8 viability; settings: not given

| SMILES | Score (sum of observed SD values for 18 genes) [SD] | synergy / antagonism of drug with gene knockdowns, in words |
| --- | --- | --- |
| CCOc1cc2ncc(C#N)c(Nc3ccc(OCc4ccccn4)c(Cl)c3)c2cc1NC(=O)/C=C/CN(C)C [Neratinib] | −39.86 | significant synergy with nine or more genes |

same assay, conditions: OVCAR-8; drug 100 nM plus siRNA knockdown of each of 18 genes; distance VAB−VA×VB in SD; single gene contributes at most +5 / −5; negative = synergy, positive = antagonism

| SMILES | Score (sum of observed SD values for 18 genes) [SD] |
| --- | --- |
| CC(C)C[C@H](NC(=O)CNC(=O)c1cc(Cl)ccc1Cl)B(O)O [Ixazomib] | -52.76 |
| Nc1nc(Nc2ccc(S(N)(=O)=O)cc2)nn1C(=O)c1c(F)cccc1F [JNJ - 7706621] | 5.07 |
| Cn1cc(-c2ccc3nnc(C(F)(F)c4ccc5ncccc5c4)n3n2)cn1 [JNJ−38877605] | 2.72 |
| O=c1cc(-c2cccc3c2Sc2ccccc2S3)oc(N2CCOCC2)c1 [KU-55933] | −14.37 |
| C[C@@H]1CN(CC(=O)Nc2ccc3c(c2)Cc2cccc(-c4cc(=O)cc(N5CCOCC5)o4)c2S3)C[C@H](C)O1 [KU-60019] | −25.5 |
| O=C(Cc1ccc(-c2ccc(OCCN3CCOCC3)cc2)cn1)NCc1ccccc1 [KX2-391] | 13.4 |
| COc1ccc(-c2ccc3c(N4CCOCC4)nc(N4C[C@@H](C)O[C@@H](C)C4)nc3n2)cc1CO [Ku-0063794] | −41.94 |
| c1ccc2c(-c3cnn4cc(-c5ccc(N6CCNCC6)cc5)cnc34)ccnc2c1 [LDN193189] | −28.37 |
| O=c1cc(N2CCOCC2)oc2c(-c3ccccc3)cccc12 [LY294002] | −8.41 |
| c1ccc(-c2nn3c(c2-c2ccnc4cc(OCCN5CCOCC5)ccc24)CCC3)nc1 [LY2109761] | −40.45 |
| Cc1cccc(-c2nn3c(c2-c2ccnc4ccc(C(N)=O)cc24)CCC3)n1 [LY2157299] | −0.82 |
| CC(C)(C)Cn1c(N)nc2ccc(-c3[nH]c(C(C)(C)C)nc3-c3ccc(F)cc3)nc21 [LY2228820] | −30.98 |
| Cc1cnc(NC(=O)Nc2cc(Br)c(C)cc2OC[C@@H]2CNCCO2)cn1 [LY2603618] | -52.09 |
| COc1cc2nccc(Oc3ccc(NC(=O)NC4CC4)c(Cl)c3)c2cc1C(N)=O [Lenvatinib] | −27.5 |
| Nc1nc(=O)c2c([nH]1)NCC(CNc1ccc(C(=O)N[C@@H](CCC(=O)[O-])C(=O)[O-])cc1)N2C=O.[Ca+2] (stereo partly drawn) [Leucovorin Calcium] | 1.29 |
| Cc1ccc(F)c(NC(=O)Nc2ccc(-c3cccc4[nH]nc(N)c34)cc2)c1 [Linifanib] | −25.28 |
| C[C@]1(O)C[C@@H](c2nc(-c3ccc4ccc(-c5ccccc5)nc4c3)c3c(N)nccn32)C1 [Linsitinib] | −28.72 |
| O=C(O)c1nn(Cc2ccc(Cl)cc2Cl)c2ccccc12 [Lonidamine] | −16.85 |
| O=C(O)CC[C@H]1CC[C@@](c2cc(F)ccc2F)(S(=O)(=O)c2ccc(Cl)cc2)CC1 [MK-0752] | −34.92 |
| C=CCn1c(=O)c2cnc(Nc3ccc(N4CCN(C)CC4)cc3)nc2n1-c1cccc(C(C)(C)O)n1 [MK-1775] | -64.04 |

| SMILES | Score (sum of observed SD values for 18 genes) [SD] |
| --- | --- |
| Cl.Cl.NC1(c2ccc(-c3nc4ccc5n[nH]c(=O)n5c4cc3-c3ccccc3)cc2)CCC1 [MK-2206 2HCI] | −23.29 |
| CC(C)C[C@H](NC(=O)CNC(=O)c1cc(Cl)ccc1Cl)B1OC(=O)C(CC(=O)O)(CC(=O)O)O1 [MLN9708] | −34 |
| Cc1ccc(NC(=O)c2ccc(CN3CCN(C)CC3)cc2)cc1Nc1nc(-c2cccnc2)cs1 [Masitinib] | −4.23 |
| C[C@H]1C[C@H]2[C@@H]3CCC4=CC(=O)C=C[C@]4(C)[C@H]3C(=O)C[C@]2(C)[C@@]1(O)C(=O)CO [Meprednisone] | −25.82 |
| O=S(=O)(O)CCS [Mesna] | −15.88 |
| CC#C[C@]1(O)CC[C@H]2[C@@H]3CCC4=CC(=O)CCC4=C3[C@@H](c3ccc(N(C)C)cc3)C[C@@]21C [Mifepristone] | −22.75 |
| Nc1ccccc1NC(=O)c1ccc(CNc2nccc(-c3cccnc3)n2)cc1 [Mocetinostat] | 1.27 |
| N#CCNC(=O)c1ccc(-c2ccnc(Nc3ccc(N4CCOCC4)cc3)n2)cc1 [Momelotenib] | −0.52 |
| CC1(C)CNc2cc(NC(=O)c3cccnc3NCc3ccncc3)ccc21 [Motesanib Diphosphate] | −12.16 |
| COc1c(C)c2c(c(O)c1C/C=C(\C)CCC(=O)OCCN1CCOCC1)C(=O)OC2 [Mycophenolate mofetil] | −3.2 |
| COc1c(C)c2c(c(O)c1C/C=C(\C)CCC(=O)O)C(=O)OC2 [Mycophenolic acid] | −20.87 |
| O=c1cc(N2CCOCC2)oc2c(-c3cccc4c3sc3ccccc34)cccc12 [NU7441] | −10.42 |
| CCN1CCN(Cc2ccc(-c3cc4c(N[C@H](C)c5ccccc5)ncnc4[nH]3)cc2)CC1 [NVP-AEE788] | −41.08 |
| Cl.Cl.Fc1cc(-c2cccc3ncc(-c4cnn(C5CCNCC5)c4)nc23)cc(F)c1CN1CCOCC1 [NVP-BSK805 2HCI] | −43.77 |
| CC1(C)CCC(c2ccc(Cl)cc2)=C(CN2CCN(c3ccc(C(=O)NS(=O)(=O)c4ccc(N[C@H](CCN5CCOCC5)CSc5ccccc5)c(S(=O)(=O)C(F)(F)F)c4)cc3)CC2)C1 [Navitoclax] | −13.79 |
| COC(=O)c1ccc2c(c1)NC(=O)/C2=C(\Nc1ccc(N(C)C(=O)CN2CCN(C)CC2)cc1)c1ccccc1 [Nintedanib] | −36.11 |
| COC(=O)Nc1nc2ccc(C(=O)c3cccs3)cc2[nH]1 [Nocodazole] | −7.78 |
| COc1ccc(C2=N[C@@H](c3ccc(Cl)cc3)[C@@H](c3ccc(Cl)cc3)N2C(=O)N2CCNC(=O)C2)c(OC(C)C)c1 [Nutlin-3] | −5.25 |
| C#Cc1cccc(Nc2ncnc3cc(OCCOC)c(OCCO)cc23)c1 [OSI-420] | −27.08 |
| O=C(Nc1ccc(OC(F)(F)F)cc1)c1sccc1NCc1ccnc2ccccc12 [OSI-930] | −0.3 |

| SMILES | Score (sum of observed SD values for 18 genes) [SD] |
| --- | --- |
| COC1=CC(c2cc3ccccc3[nH]2)=N/C1=C\c1[nH]c(C)cc1C [Obatoclax mesylate] | −10.02 |
| O=C(c1cc(Cc2n[nH]c(=O)c3ccccc23)ccc1F)N1CCN(C(=O)C2CC2)CC1 [Olaparib] | −19.18 |
| C[C@](O)(COc1ccc(C#N)cc1)C(=O)Nc1ccc(C#N)c(C(F)(F)F)c1 [Ostarine] | −14.47 |
| C=CCc1cccc(/C=N/NC(=O)CN2CCN(Cc3ccccc3)CC2)c1O [PAC - 1] | −13.56 |
| CN(C)Cc1c(C(=O)NCCOc2ccc(C(=O)NO)cc2)oc2ccccc12 [PCI-24781] | -54.91 |
| CCN(CC)CCCCNc1ncc2cc(-c3cc(OC)cc(OC)c3)c(NC(=O)NC(C)(C)C)nc2n1 [PD173074] | −46.63 |
| O=C(NOC[C@H](O)CO)c1ccc(F)c(F)c1Nc1ccc(I)cc1F [PD0325901] | −37.42 |
| CS(=O)(=O)c1cccc(CNc2nc(Nc3ccc4c(c3)CCC(=O)N4)ncc2C(F)(F)F)c1 [PF 573228] | −28.79 |
| CN(c1ncccc1CNc1nc(Nc2ccc3c(c2)CC(=O)N3)ncc1C(F)(F)F)S(C)(=O)=O [PF - 562271] | −17.41 |
| O=C(Nc1cccnc1)N1CCC(Cc2cccc(Oc3ccc(C(F)(F)F)cn3)c2)CC1 [PF-3845] | -51.78 |
| CC(=O)NCC(=O)N1[C@@H]2CC[C@H]1c1ccc(Nc3ncc(C(F)(F)F)c(NC4CCC4)n3)cc12 [PF-03814735] | −30.13 |
| OCCn1cc(-c2cnc3nnn(Cc4ccc5ncccc5c4)c3n2)cn1 [PF-04217903] | −6.89 |
| CNC(=O)c1ccc(C)c(-n2c(C)cc(OCc3ccc(F)cc3F)c(Br)c2=O)c1 [PH-797804] | -64.86 |
| Cc1[nH]c(/C=C2\C(=O)Nc3ccc(S(=O)(=O)Cc4c(Cl)cccc4Cl)cc32)c(C)c1C(=O)N1CCC[C@@H]1CN1CCCC1 [PHA-665752] | −13.95 |
| CC(C)CC(=O)Nc1[nH]nc2c1CN(C(=O)C1CCN(C)CC1)C2(C)C [PHA-793887] | −42.75 |
| Oc1cccc(-c2nc(N3CCOCC3)c3oc4ncccc4c3n2)c1 [PI-103] | -56.96 |
| Cc1ccc([N+](=O)[O-])cc1S(=O)(=O)N(C)/N=C/c1cnc2ccc(Br)cn12 [PIK-75] | −19.42 |
| COc1ccc2c(c1OC)N=C(NC(=O)c1cccnc1)N1CCN=C21 [PIK-90] | −44.52 |
| CC(=O)Nc1nc(C)c(-c2ccc(Cl)c(S(=O)(=O)NCCO)c2)s1 [PIK-93] | −20.62 |

same assay, conditions: OVCAR-8; drug 100 nM; panel of 18 siRNA knockdowns

| SMILES | synergy / antagonism of drug with gene knockdowns, in words |
| --- | --- |
| Cc1cnc(NC(=O)Nc2cc(Br)c(C)cc2OC[C@@H]2CNCCO2)cn1 [LY2603618] | high level of synergism |
| C=CCn1c(=O)c2cnc(Nc3ccc(N4CCN(C)CC4)cc3)nc2n1-c1cccc(C(C)(C)O)n1 [MK-1775] | Frequently among the top synergizing pairs |
| Nc1ccccc1NC(=O)c1ccc(CNc2nccc(-c3cccnc3)n2)cc1 [Mocetinostat] | frequently antagonized by knockdown of specific genes |
| CN(C)Cc1c(C(=O)NCCOc2ccc(C(=O)NO)cc2)oc2ccccc12 [PCI-24781] | mostly synergistic |
| CCN(CC)CCCCNc1ncc2cc(-c3cc(OC)cc(OC)c3)c(NC(=O)NC(C)(C)C)nc2n1 [PD173074] | significant synergy with nine or more genes |
| CC(=O)NCC(=O)N1[C@@H]2CC[C@H]1c1ccc(Nc3ncc(C(F)(F)F)c(NC4CCC4)n3)cc12 [PF-03814735] | significant synergy |
| CC(C)CC(=O)Nc1[nH]nc2c1CN(C(=O)C1CCN(C)CC1)C2(C)C [PHA-793887] | strong synergies with multiple genes |
| Oc1cccc(-c2nc(N3CCOCC3)c3oc4ncccc4c3n2)c1 [PI-103] | synergy to the vast majority of genes |

same assay, conditions: OVCAR-8; drug 100 nM; siRNA knockdown

| SMILES | number of genes (of 18) with high synergy with the drug [genes] | number of genes (of 18) whose knockdown synergizes with the drug [genes] |
| --- | --- | --- |
| C=CCn1c(=O)c2cnc(Nc3ccc(N4CCN(C)CC4)cc3)nc2n1-c1cccc(C(C)(C)O)n1 [MK-1775] | 13 | – |
| CN(C)Cc1c(C(=O)NCCOc2ccc(C(=O)NO)cc2)oc2ccccc12 [PCI-24781] | – | 12 |
| CNC(=O)c1ccc(C)c(-n2c(C)cc(OCc3ccc(F)cc3F)c(Br)c2=O)c1 [PH-797804] | – | 14 |
